Measured values as given in patent US20130022974A1, “DNA METHYLATION PROFILES IN CANCER” (THE REGENTS OF THE UNIVERSITY OF MICHIGAN, priority 2011, published 2013).
“Also recorded” adds a separate entry of the source.

What was measured:
LNCaP cells [1] = experiment: Quantitative real time PCR of transcript variants in 5-Aza treated LNCaP cells; type: cell-based, human; settings: 5-Aza treatment vs DMSO
Protocol: Total RNA was isolated from cells using RNeasy mini kit (Qiagen, Valencia, Calif.) according to manufacturer's instructions. A DNAseI treatment step was included during the total RNA isolation procedure to remove genomic DNA from the samples. One microgram of total RNA was used in cDNA synthesis using Superscript III reverse transcriptase (Invitrogen, Carlsbad, Calif.). Quantitative real time PCR (QPCR) was performed on prostate cell line cDNA samples using SYBR Green Mastermix (Applied Biosystems) on an Applied Biosystems 7900 Real Time PCR system as described (Tomlins et al. 2007, Nat Genet 39: 41-51). GAPDH primers sequences were as described (Vandesompele et al. 2002, Genome Biol 3: RESEARCH0034). The amount of target transcript and GAPDH in each sample was normalized by standard ddCt methodology, and then to the reference PrEC or DMSO-treated LNCaP samples accordingly.
(§1) For 5-Aza stimulation experiments, LNCaP cells cultured in RPMI 1640 were treated with vehicle, dimethyl sulfoxide (DMSO) or 6 μM 5-Aza for 4 or 6 days in duplicates. Total RNA was isolated with Trizol (Life Technologies, Carlsbad, Calif.) and further purified using RNAeasy Micro Kit (Qiagen, Valencia, Calif.) according to the manufacturer's instructions. Expression profiling was performed using the Agilent 44K expression array. One microgram of total RNA was converted to cRNA and then labeled according to the manufacturer's protocol (Agilent). Hybridizations were performed for 16 h at 65° C. Scanned images from Agilent microarray scanner were analyzed and extracted using Agilent Feature Extraction Software 9.1.3.1 with linear and lowess normalization performed for each array. A total of 4 hybridizations were performed including two 4 day and two 6 day 5-Aza treated samples (Cy5) against control DMSO-treated samples (Cy3). The accession number for gene expression dataset in the GEO database is GSE27619.

LNCaP cells [2] = experiment: Expression profiling of 5-Aza treated LNCaP cells (Agilent 44K array, one-class SAM); type: cell-based, human; settings: 6 μM 5-Aza for 4 or 6 days vs DMSO, 5% false discovery rate, number of methylated genes on the array
Protocol: Significance analysis of microarray (SAM) (Tusher et al. Proc Natl Acad Sci USA 98: 5116-5121 2001) was performed on the gene expression dataset obtained from 5-Aza and DMSO-treated LNCaP cells by selecting genes that were methylated in LNCaP. From 1,171 methylated genes from LNCaP M-NGS (Table 1), a total of 973 genes were mapped to Agilent expression profiling data. One-class SAM analysis was done using default settings and significant genes were calculated with a false discovery rate (FDR) of 0.05.
as §1, with “A total of 4 hybridizations were performed including two 4 day and two 6 day 5-Aza treated samples (Cy5) against control DMSO-treated samples (Cy3). The accession number for gene expression dataset in the GEO database is GSE27619.” left out

Q: What does the source list for Nc1ncn([C@H]2C[C@H](O)[C@@H](CO)O2)c(=O)n1 [5-Aza, 5-Aza-2′-deoxycytidine]?
A: re-expression of CpG-methylated APC variant-2 and -3 (LNCaP cells [1]): preferentially re-expressed; also recorded: re-expression; re-expression of CpG-methylated NDRG2 variants 1-4 (LNCaP cells [1]): preferentially re-expressed; also recorded: re-expression; re-expression of CpG-methylated RASSF1 variant-1 transcript (LNCaP cells [1]): preferential re-expression; upregulation of LNCaP methylated genes (SAM) (LNCaP cells [2]): 246 out of 973
